Assay [1] has as its target Tyrosine-protein kinase SYK (Homo sapiens) (UniProt P43405). Briefly: Inhibition of human wild type partial length SYK (D354 to N635 residues) expressed in bacterial expression system at 1 uM by KINOMEScan assay relative to control.
For assay [2], the target named is T1, Mitogen-activated protein kinase kinase kinase kinase 2 (Homo sapiens) (UniProt Q12851).
T1 sequence (whole entry): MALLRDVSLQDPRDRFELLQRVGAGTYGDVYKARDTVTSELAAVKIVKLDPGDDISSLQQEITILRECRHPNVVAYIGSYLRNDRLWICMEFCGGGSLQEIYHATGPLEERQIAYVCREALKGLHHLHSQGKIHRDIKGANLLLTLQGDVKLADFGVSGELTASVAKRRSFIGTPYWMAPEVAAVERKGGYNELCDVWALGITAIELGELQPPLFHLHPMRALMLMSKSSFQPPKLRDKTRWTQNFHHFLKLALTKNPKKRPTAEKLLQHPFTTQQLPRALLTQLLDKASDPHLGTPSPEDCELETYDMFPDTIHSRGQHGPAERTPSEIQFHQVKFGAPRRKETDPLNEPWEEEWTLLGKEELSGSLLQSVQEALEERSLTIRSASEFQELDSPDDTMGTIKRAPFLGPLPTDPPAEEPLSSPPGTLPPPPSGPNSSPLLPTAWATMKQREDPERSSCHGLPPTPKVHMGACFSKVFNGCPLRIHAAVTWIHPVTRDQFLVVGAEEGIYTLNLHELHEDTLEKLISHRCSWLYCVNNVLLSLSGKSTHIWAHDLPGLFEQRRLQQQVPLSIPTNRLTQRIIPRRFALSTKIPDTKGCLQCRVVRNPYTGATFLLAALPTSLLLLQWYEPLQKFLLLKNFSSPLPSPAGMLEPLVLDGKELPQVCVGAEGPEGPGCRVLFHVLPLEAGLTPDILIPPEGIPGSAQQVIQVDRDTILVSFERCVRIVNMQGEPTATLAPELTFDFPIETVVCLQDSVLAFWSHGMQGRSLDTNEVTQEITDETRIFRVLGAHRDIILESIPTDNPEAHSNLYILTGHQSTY
As to the kind of experiment: Inhibition of human wild type GCK (M1 to G318 residues) expressed in mammalian expression system at 1 uM by KINOMEScan assay relative to control.

For assay [3], the target named is T2, Mitogen-activated protein kinase kinase kinase kinase 2 (Homo sapiens, UniProt Q12851).
T2 sequence (Q12851 whole entry): T1 sequence (whole entry)
Briefly: Binding affinity to human wild type GCK (M1 to G318 residues) expressed in mammalian expression system by KINOMEScan assay.

One may read the inhibition as the change of the read-out against control, counted positive when it falls. As to `CNC(=O)c1cccnc1Nc1nc(-c2cccc(OC)c2)cc2nccn12`, the inhibition worked out at 1% in assay [1] and 0% in assay [2].
Taken in the same sequence, the figures for `CC(C)NC(=O)c1cccnc1Nc1nc(-c2ccccc2)cc2nccn12` were 0% and 0%.
Taken in the same sequence, the figures for `COc1cc(OC)cc(-c2cc3nccn3c(Nc3ncccc3C(N)=O)n2)c1` were 80% and 100%.
Turning to `CNC(=O)c1cccnc1Nc1nc(-c2ccccc2)cc2nccn12`, the inhibition was determined as 30% in assay [1] and 24% in assay [2].
Taken in the same sequence, the figures for `CNC(=O)c1cccnc1Nc1cc(-c2ccccc2)cc2[nH]ccc12` were 1% and 29%.
As usually defined, the Kd is a measure of binding affinity in units of concentration. Read a high Kd as a looser complex. Turning to `COc1cccc(-c2cc3nccn3c(Nc3ncccc3C(N)=O)n2)c1`, the inhibition was determined as 37% in assay [1] and 97.2% in assay [2]. This molecule registered a Kd in assay [3] of 59 nM.
Turning to `COc1ccc(-c2cc3nccn3c(Nc3ncccc3C(N)=O)n2)cc1OC`, the values for the inhibition in assay [1] and in assay [2] were 85% and 100%, respectively.
Regarding `COc1ccc(-c2cc3nccn3c(Nc3ncccc3C(N)=O)n2)cc1`, the inhibition stood at 59% in assay [1] and 99.1% in assay [2].
Taken in the same sequence, the figures for `CCCCOc1ccc(-c2cc3nccn3c(Nc3ncccc3C(N)=O)n2)cc1` were 4% and 47%.
Taken in the same sequence, the figures for `CNC(=O)c1cccnc1Nc1nc(-c2ccc(OC)cc2)cc2nccn12` were 0% and 1%.
Take `NC(=O)c1cccnc1Nc1nc(-c2ccc3c(c2)OCO3)cc2nccn12`: the figures for the inhibition in assay [1] and in assay [2] were 24% and 94.3%, respectively. Further, in assay [3], the Kd is 49 nM.
With `CNC(=O)c1cccnc1Nc1cc(-c2ccc(OC)cc2)cc2[nH]ccc12`, the figures for the inhibition in assay [1] and in assay [2] were 0% and 2%, respectively.
Taken in the same sequence, the figures for `NC(=O)c1cccnc1Nc1nc(-c2ccccc2)cc2nccn12` were 73% and 99.5%.
Taken in the same sequence, the figures for `CCCCNC(=O)c1cccnc1Nc1nc(-c2ccccc2)cc2nccn12` were 8% and 8%.
As for `COc1ccc(-c2cccc(-c3cc4nccn4c(Nc4ncccc4C(N)=O)n3)c2)cc1`, the inhibition came to 5% in assay [1] and 84% in assay [2]. Also, the Kd in assay [3] worked out at 220 nM.
As for `COc1ccccc1-c1cc2nccn2c(Nc2ncccc2C(N)=O)n1`, the inhibition was 61% in assay [1] and 100% in assay [2].
`CCNC(=O)c1cccnc1Nc1nc(-c2ccccc2)cc2nccn12`: the inhibition is 19% in assay [1] and 20% in assay [2].
On to `Cc1ccccc1-c1cc2nccn2c(Nc2ncccc2C(N)=O)n1`, for which the inhibition in assay [1] was 11%; in assay [2], 94.7%. In assay [3], this molecule came in with a Kd of 100 nM.
With `CN(C)C(=O)c1cccnc1Nc1nc(-c2ccccc2)cc2nccn12`, the inhibition stood at 10% in assay [1] and 58% in assay [2].
For the molecule `CNC(=O)c1cccnc1Nc1nc(-c2ccc3c(c2)OCO3)cc2nccn12`, the inhibition turned out to be 9% in assay [1] and 1% in assay [2].
As for `O=C(NCc1ccccc1)c1cccnc1Nc1nc(-c2ccccc2)cc2nccn12`, the inhibition in assay [1] was determined as 0%; in assay [2], 2%.
Taken in the same sequence, the figures for `CNC(=O)c1cccnc1Nc1nc(-c2ccc(OC)c(OC)c2)cc2nccn12` were 0% and 0%.
With `COc1ccc(-c2cc3nccn3c(Nc3ncccc3C(N)=O)n2)c(OC)c1`, the inhibition in assay [1] amounted to 80%; in assay [2] it was 100%.
Taken in the same sequence, the figures for `CCCNC(=O)c1cccnc1Nc1nc(-c2ccccc2)cc2nccn12` were 5% and 16%.
Taken in the same sequence, the figures for `Cc1ccc(-c2cc3nccn3c(Nc3ncccc3C(N)=O)n2)cc1` were 58% and 99.2%.
Taken in the same sequence, the figures for `CCC(C)NC(=O)c1cccnc1Nc1nc(-c2ccccc2)cc2nccn12` (stereo not given) were 1% and 29%.
Turning to `Cc1cccc(-c2cc3nccn3c(Nc3ncccc3C(N)=O)n2)c1`, the inhibition in assay [1] came to 74%; in assay [2], 100%.
`CCCOc1ccc(-c2cc3nccn3c(Nc3ncccc3C(N)=O)n2)cc1`: the inhibition in assay [1] was 51%; in assay [2], 86%.

Source of the values: ChEMBL document CHEMBL4038294, “Divergent synthesis of kinase inhibitor derivatives, leading to discovery of selective Gck inhibitors” (Bioorg Med Chem Lett, 2017).
